Data reported in patent US8207133B1, “Peptides that down regulate the activity of plasma membrane transporters including sodium-D-glucose cotransporter SGLT1” (Julius-Maximilians-Universitat Wurzburg, priority 2005, dated 2012).
Read-outs that look alike come from different tables or passages of the source. Residues, ends and D or L forms follow the SMILES beside them.

Experiments:
hPEPT1 = molecular target: T1, hPEPT1 (Homo sapiens, UniProt P46059); assay: Electrogenic peptide transport by hPEPT1 in oocytes, two-electrode voltage clamp; format: cell-based
T1 construct: expressed in transfected cells; host or cells: Xenopus laevis oocytes (cRNA injection, 30 ng per oocyte)
T1 sequence (P46059 1-708): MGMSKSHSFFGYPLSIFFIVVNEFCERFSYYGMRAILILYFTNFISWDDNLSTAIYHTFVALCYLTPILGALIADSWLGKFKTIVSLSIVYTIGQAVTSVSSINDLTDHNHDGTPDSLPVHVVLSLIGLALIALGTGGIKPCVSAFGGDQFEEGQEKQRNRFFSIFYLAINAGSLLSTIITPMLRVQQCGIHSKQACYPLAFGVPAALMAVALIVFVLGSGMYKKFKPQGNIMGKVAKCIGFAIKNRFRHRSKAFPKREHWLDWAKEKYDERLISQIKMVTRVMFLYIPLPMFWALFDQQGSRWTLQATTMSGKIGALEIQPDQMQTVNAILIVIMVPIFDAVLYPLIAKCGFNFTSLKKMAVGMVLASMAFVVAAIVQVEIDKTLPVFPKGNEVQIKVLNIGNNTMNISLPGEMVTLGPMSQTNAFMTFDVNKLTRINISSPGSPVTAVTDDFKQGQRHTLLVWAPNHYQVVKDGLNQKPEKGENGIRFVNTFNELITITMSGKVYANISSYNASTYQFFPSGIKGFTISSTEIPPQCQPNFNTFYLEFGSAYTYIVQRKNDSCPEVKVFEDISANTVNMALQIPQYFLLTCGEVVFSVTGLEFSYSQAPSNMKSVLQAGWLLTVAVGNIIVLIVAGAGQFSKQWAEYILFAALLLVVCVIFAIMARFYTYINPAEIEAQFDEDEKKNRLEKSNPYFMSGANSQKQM
Description: The oocytes were incubated for three days at 16° C. in ORi buffer (in mM: 5 HEPES-Tris, pH 7.4, 100 NaCl, 3 KCl, 2 CaCl2, and 1 MgCl2). […] The oocytes were superfused with Ori buffer titrated to pH 6.5, the membrane potential of the oocytes was clamped to −40 mV, and inward current induced by superfusion with Ori buffer (pH 6.5) containing 5 mM of a control dipeptide or 5 mM of the tested tripeptide was measured.

hSGLT1 [1] = assay: hSGLT1 expressed [14C]AMG uptake in Xenopus oocytes after injection of hRS1 protein or hRS1 peptides; format: cell-based, human
[2] = system: RS1 at the TGN in LLC-PK1 cells; assay: Immunostaining of RS1 in subconfluent LLC-PK1 cells after brefeldin A; format: cell-based; conditions: 2 μg/ml brefeldin A, 1 min or 5 min
Description: For immunostaining, LLC-PK1 cells were grown on coverslips to about 50% confluence. The cells were washed twice with washing buffer (5 mM 3-(N-morpholino)propanesulfonic acid-NaOH, pH 7.4, 100 mM NaCl, 3 mM KCl, 2 mM CaCl2, and 1 mM MgCl2), fixed for 12 min with 4% (w/v) paraformaldehyde diluted in washing buffer, and washed twice again. Free aldehyde groups were quenched by 10 min incubation with washing buffer containing 40 mM glycine. For immunoreactions, washed cells were permeabilized by a 10-min incubation with washing buffer containing 0.25% (w/v) TritonX-114, and incubated over night at 4° C. with primary antibodies diluted in washing buffer. The dilutions of primary antibodies were as follows: rabbit-anti-RS1-Ab 1:50 (Valentin (2000), Biochim. Biophys. Acta, 1468, 367-380); QIS30 directed against SGLT1 1:400 (Kipp (2003), Am. J. Physiol., 285, C737-C749), sheep-anti-TGN46 1:125 (from Diagnostic International, Schriesheim, Germany). After incubation with primary antibodies, cells were washed 3 times with washing buffer and incubated for 1 h at room temperature with fluorochrome linked secondary antibodies (goat antibody against rabbit IgG linked to AlexaFluor 488 Molecular Probes, Leiden, Netherlands, and donkey anti-sheep IgG coupled to Cy2 from Dianova, Hamburg, Germany). […]

hOCT2 = conditions: intracellular AMG 0.1 mM, <0.01 mM or 10 mM
Description: Corresponding measurements were performed in the presence of intracellular AMG concentrations of 0.1 mM, <0.01 mM or 10 mM.

SGLT1 = conditions: 60 min pre-incubation, pH 6.5, 3 mM QCP, 0.1 mM D-glucose
Description: Walls of small intestinal mucosa from mice are inserted into an Ussing chamber and the SGLT1 mediated transepitehila currents are measured that are induced by addition of 0.1 mM D-glucose to the mucosal side. The intestinal walls are pre-incubated for 60 min with buffer at pH 6.5 containing 0.1 mM D-glucose or with buffer at pH 6.5 containing 0.1 mM D-glucose plus 3 mM of QCP. After washing glucose-induced transepithelial currents are measured.

[3] = system: sodium dependent amino acid transporters; conditions: 60 min, pH 6.5, 3 mM QCP, 10 mM amino acids
Description: Walls of small intestinal mucosa from mice are inserted into an Ussing chamber and transepitehial currents are measured that are induced by addition of 10 mM of various amino acids to the mucosal side. The intestinal walls are incubated for 60 min with buffer at pH 6.5 containing 0.1 mM D-glucose or with buffer at pH 6.5 containing 0.1 mM D-glucose plus 3 mM of QCP. After washing, amino acid induced transepithelial currents without and with preteatment with QCP are compared.

hSGLT1 [4] = assay: [14C]AMG uptake after incubating oocytes expressing hSGLT1 with or without hPEPT1 with tripeptide in the medium; format: cell-based, human; conditions: pH 6.5
Description: In a different experimental setup, oocytes were injected with SGLT1 cRNA (2.5 ng per oocyte) or with hSGLT1 cRNA (2.5 ng per oocyte) plus hPEPT1 cRNA (10 ng per oocyte) and the oocytes were incubated 3 days for expression. Thereafter the oocytes were incubated 30 min with Ori buffer adjusted to pH 6.5 or with Ori buffer adjusted to pH 6.5 containing 3 mM of the tested tripeptide. Thereafter oocytes were washed with Ori buffer (pH 7.4) and uptake of [^14C]AMG was measured.
It was furthermore elucidated whether in human small intestine the expression of hSGLT1 can be inhibited by oral ingestion of QCP. […] Thereafter the oocytes were washed with neutral Ori buffer and the hSGLT1 expressed uptake of 50 μM [^14C]AMG was measured (FIG. 7). QCP had no effect in oocytes in which hSGLT1 but not hPEPT1 was expressed (data not shown). However, in oocytes expressing hSGLT1 plus hPEPT1, [^14C]AMG uptake was inhibited by about 50% when the oocytes had been incubated with QCP (FIG. 7). Incubation of oocytes expressing hSGLT1 plus hPEPT1 with PCQ had no effect on the expressed uptake of [^14C]AMG.

[5] = 10 mM QCP in drinking water pH 6.0, 2 months, standard chow or sugar low diet
Description: The body weight development with and without peptide treatment is compared over 2 months.

**Q.** For `NCC(=O)N[C@@H](CCC(N)=O)C(=O)O` [GC, glycylglutamine, reference compound] (H-Gly-Gln-OH), which “inward currents in oocytes expressing hPEPT1” value (hPEPT1; 5 mM peptide, pH 6.5, clamped to -40 mV) is on record?
**A.** The value was “significant inward currents”.

**Q.** What about the “inward currents in control oocytes not injected with hPEPT1 cRNA” value (hPEPT1; data not shown) of the same molecule?
**A.** The value was “no inward currents”.

**Q.** Which results are given for “SDSDRIEP [Serine-Aspartic acid-Serine-Aspartic acid-Arginine-Isoleucine-Glutamic acid-Proline, octapeptide of hRS1, amino acid positions 43 to 50]”?
**A.** inhibition of glucose uptake expressed by hSGLT1 (hSGLT1 [1]): about 50%; inhibition of hSGLT1 expressed AMG uptake after stimulation of protein kinase C (hSGLT1 [1]): not changed; inhibition of hSGLT1 expressed AMG uptake with coexpressed dominant negative mutant of dynamin I (hSGLT1 [1]): not changed; inhibitory effect on expression of hSGLT1 when the exocytotic pathway was blocked (hSGLT1 [1]): could be prevented

**Q.** Which “immunoreactivity of RS1 at the perinuclear compartment” value [2] does the source give for `C[C@H]1CCC/C=C/[C@@H]2C[C@H](O)C[C@H]2[C@H](O)/C=C/C(=O)O1` [brefeldin A] here?
**A.** Its value is “disappeared within several minutes”.

**Q.** For “SVQPCQENQ [reverse nonapeptide of […], reference compound]”, which “inhibition of uptake of 50 μM [14C]AMG” value (hSGLT1 [1]; 50 nl/oocyte containing 1.5 mM peptide injected, 30 min) is on record?
**A.** The value was “No inhibition”.

**Q.** With Glutamine-Cysteine-Proline [QCP] as the molecule, how does the “hOCT2 expressed [14C]TEA uptake after injection” value (hOCT2) read?
**A.** The value was “appears not to be inhibited”.

**Q.** What about the transepithelial glucose flux (SGLT1) of the same molecule?
**A.** Its transepithelial glucose flux is “inhibits transepithelial glucose flux”.

**Q.** And the “transepithelial flux of amino acids” value [3]?
**A.** The value was “inhibits transepithelial flux of amino acids”.

**Q.** What about the “AMG uptake inhibition in the absence of BTXB” value (hSGLT1 [1]) of the same molecule?
**A.** The value was “inhibited”.

**Q.** And the “AMG uptake inhibition in the presence of BTXB” value (hSGLT1 [1])?
**A.** Its value is “no significant inhibition”.

**Q.** What about the “inhibition of glucose uptake expressed by hSGLT1” value (hSGLT1 [1]) of the same molecule?
**A.** The value was “about 50%”.

**Q.** And the “inhibition of hSGLT1 expressed AMG uptake after stimulation of protein kinase C” value (hSGLT1 [1])?
**A.** The value was “not changed”.

**Q.** And the “inhibition of hSGLT1 expressed AMG uptake with coexpressed dominant negative mutant of dynamin I” value (hSGLT1 [1])?
**A.** The value was “not changed”.

**Q.** What about the “inhibition of hSGLT1 expressed uptake of AMG after 3 h” value (hSGLT1 [1]) of the same molecule?
**A.** Its value is 60%.

**Q.** What about the “inhibition of hSGLT1 expressed uptake of AMG after 5 h” value (hSGLT1 [1]) of the same molecule?
**A.** The value was “about 40%”.

**Q.** And the “inhibition of hSGLT1 expressed uptake of AMG after 10 h” value (hSGLT1 [1])?
**A.** Its value is 20-30%.

**Q.** What about the “inhibitory effect on expression of hSGLT1 when the exocytotic pathway was blocked” value (hSGLT1 [1]) of the same molecule?
**A.** Its value is “could be prevented”.

**Q.** And the “intracellular concentration of QCP at which 35-40% inhibition was obtained” value (hSGLT1 [1])?
**A.** The value was “below 5 nM”.

**Q.** What about the “inhibition of hSGLT1 expressed AMG uptake” value (hSGLT1 [1]; 0.05 µM) of the same molecule?
**A.** Its value is 35-40%.

**Q.** And the “effect on AMG uptake in oocytes expressing hSGLT1 but not hPEPT1” value (hSGLT1 [4])?
**A.** The value was “no effect”.

**Q.** What about the “inhibition of [14C]AMG uptake in oocytes expressing hSGLT1 plus hPEPT1” value (hSGLT1 [4]) of the same molecule?
**A.** The value was “about 50%”.

**Q.** What about the “inward currents in control oocytes not injected with hPEPT1 cRNA” value (hPEPT1) of the same molecule?
**A.** Its value is “no inward currents”.

**Q.** What about the “inward currents in oocytes expressing hPEPT1” value (hPEPT1; pH 6.5) of the same molecule?
**A.** The value was “significant inward currents”.

**Q.** And the body weight [5]?
**A.** Its body weight is “body weight is reduced”.
